Measured values: US6538145B2, “24-hydroxy vitamin D derivatives” (Chugai Seiyaku Kabushiki Kaisha, priority 1998, dated 2003)

Target: T1, vitamin D receptor derived from chick intestine (Gallus gallus, UniProt O42392)
T1 construct: vitamin D receptor derived from chick intestine; from tissue; host or cells: chick intestine
T1 sequence (O42392 1-451): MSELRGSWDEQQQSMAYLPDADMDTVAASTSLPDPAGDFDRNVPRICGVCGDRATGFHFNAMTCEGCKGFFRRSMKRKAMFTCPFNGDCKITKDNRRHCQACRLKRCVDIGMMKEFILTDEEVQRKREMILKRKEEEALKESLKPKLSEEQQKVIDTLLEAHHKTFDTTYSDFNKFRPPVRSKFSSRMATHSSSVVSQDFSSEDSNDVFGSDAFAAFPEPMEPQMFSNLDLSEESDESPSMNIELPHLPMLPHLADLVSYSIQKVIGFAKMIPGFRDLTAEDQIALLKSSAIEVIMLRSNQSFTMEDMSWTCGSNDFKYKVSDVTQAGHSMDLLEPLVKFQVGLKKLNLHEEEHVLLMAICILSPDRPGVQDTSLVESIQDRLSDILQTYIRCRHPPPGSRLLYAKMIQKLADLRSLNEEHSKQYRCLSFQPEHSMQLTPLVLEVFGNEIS
Assay: Assay for binding to vitamin D receptor (VDR), radio receptor assay (RRA)
Details: competition with 3H-1α,25-dihydroxyvitamin D3; test compound 1 to 100,000 nM; 4° C. for 3 hours; result in words only
Experimental: By the radio receptor assay (RRA), compounds 1a and 1b of the present invention were tested for their ability to bind to vitamin D receptor derived from chick intestine.
^3H-1α,25-dihydroxyvitamin D3 was dissolved in ethanol (20 μl) at a concentration of 10,000 dpm. Three test compounds, 1α,25-dihydroxyvitamin D3, compound la and compound 1b, were diluted with ethanol to give concentrations in the range of from 1 to 100,000 nM, respectively.
To each of small tubes, 20 μl of ^3H-1α,25 -dihydroxyvitamin D3 in solution and 50 μl of a test compound (i.e., 1α,25-dihydroxyvitamin D3, compound 1a or compound 1b) in solution were added. A solution of vitamin D receptor was prepared by dissolving 25 mg of VDR in 70 ml of 0.05M phosphate buffer solution containing 0.3 M KCl and 5 mM DTT (dithiothreitol) and 0.5 ml of the resulting solution was added to each tube, followed by mixing. […] To 0.5 ml of the supernatant, 5 ml of liquid scintillator was added for radioactivity measurement. The B/B0 value was calculated from the measurements (B: radioactivity measured in the presence of a test compound, B0: radioactivity measured in the absence of the test compound).

affinity for the vitamin D receptor (B/B0, FIG. 1): show affinity for the vitamin D receptor
SMILES: C=C1C(=CC=C2CCCC3(C)C2CCC3C(C)CCC(O)C(C)(C)O)CC(O)C(OCCCO)C1O [Compound 1a, (5Z,7E)-(1R,2R,3R,24S)-2-(3-hydroxypropoxy)-9,10-secocholesta-5,7,10(19)-triene-1,3,24,25-tetraol]
